From patent publication US5026726A, “Gossylic iminolactones and gossylic lactones and their anti-viral activities” (The University of New Mexico, priority 1989, dated 1991)

Tests used:
[1] = system: reverse transcriptase (RT); conditions: literature; cited from earlier work
HIV virus = conditions: after prolonged exposure, literature; cited from earlier work
[2] = literature; cited from earlier work
Trypanosoma cruzi = conditions: literature; cited from earlier work
[3] = system: HIV-1 virus (HIV-infected MT4 cells); test: Anti-HIV-1 activity in infected MT4 cells (% IFA positive cells, 6 days); type: cell-based, human immunodeficiency virus (HIV-1), LAV-A isolate
Protocol: (§1) The above % IFA positive cells were determined 6 days after addition of HIV-1 virus. Cell viability is % viable cells relative to mock-treated cells or controls. FIGS. 1-A through D show one of many representative set of data.
An LAV-A isolate of human immunodeficiency virus (HIV-1) was used in this study. LAV-A was originally isolated by Dr. L. Montagnier, Pasteur Institute, Paris, and was obtained from Dr. T. Folks, NIAID.
MT4 cells, 10^7 cells/ml, were infected for 1 hour at 4° C., with stock HIV-1 virus, 0.5 ml stock/10^7 cells.
(§2) The infected cells were then resuspended in a complete medium (RPMI 1640 with 20% FBS, L-glutamine, 2 mM, penicillin, 100 units/ml, and streptomycin, 100 ug/ml). Aliquots were added to 24-well tissue culture plates containing varying concentrations of Compounds I, II, III and IV in complete media. The final cell concentration was 1.5×10^5 cells/ml.
(§3) Positive control wells received no drug. Negative control wells received mock-treated MT4 cells. Cells were incubated at 37° C. in 5% CO2. Media was changed after 3 days with fresh complete media containing the appropriate drug.
The percent HIV-1 viral infection was determined by an immunofluorescence assay (IFA) using heat-inactivated, pooled human anti-sera from HIV-positive patients as the first antibody and goat anti-human IgG conjugated with FITC as the second antibody. This is a standard immunoassay known in the art.
Slides were counterstained with Evans blue to obtain total cell counts from the same slides as is known in the art. Uninfected cells were consistently negative for fluorescence.

herpes simplex viruses = conditions: literature; cited from earlier work
MT4 cells = test: Cytotoxicity to MT4 cells (trypan blue exclusion); type: cell-based; conditions: for toxicity to the host cell: MT4 cells
Protocol: as §1, §2, §3
(§4) After 6 days, the viability of the MT4 cells, control or infected, was determined by trypan blue exclusion, which is a standard procedure to determine cell viability.

[4] = system: herpes simplex virus type II; conditions: literature; cited from earlier work
parainfluenza type 3 = conditions: literature; cited from earlier work
Plasmodium falcicarum = conditions: literature; cited from earlier work
[5] = system: billirubin binding site of the protein albumin; conditions: literature; cited from earlier work
[6] = Cytotoxicity to MT4 cells (trypan blue exclusion); type: cell-based; conditions: human, mt4 cells; for MCC at 144 h: read-out: concentration at which toxicity to the host cell was shown
Protocol: as §1, §2, §3, §4

SMILES: Cc1cn([C@H]2C[C@H](N=[N+]=[N-])[C@@H](CO)O2)c(=O)[nH]c1=O [AZT, 3'-azido-2',3'-dideoxythymidine]
- inhibition of reverse transcriptase [1]: inhibitor of the enzyme reverse transcriptase
- development of HIV resistance (HIV virus): may develop resistance
- toxicity limiting use in HIV-infected patients [2]: hematologic toxicity limits, and in some cases precludes, the use

SMILES: Cc1cc2c(C(C)C)c(O)c(O)c(C=O)c2c(O)c1-c1c(C)cc2c(C(C)C)c(O)c(O)c(C=O)c2c1O [Compound I, gossypol]
- growth of Trypanosoma cruzi (Trypanosoma cruzi): inhibited
- inhibition of virus replication ([3]; 1 uM, 6 days): approximately 50%
- antiviral properties: inactivation of herpes simplex viruses (herpes simplex viruses): capable of inactivating
- toxicity to the host cell (MT4 cells; 1 uM): significant toxicity to the host cell
- antiviral activity against herpes simplex virus type II [4]: exhibit antiviral activities
- antiviral properties: inactivation of parainfluenza type 3 (parainfluenza type 3): capable of inactivating
- growth of Plasmodium falcicarum (Plasmodium falcicarum): inhibited
- binding to the bilirubin binding site of albumin [5]: bind tightly

SMILES: CC(=O)Oc1c(-c2c(C)cc3c(C(C)C)c(O)c(O)c(C#N)c3c2OC(C)=O)c(C)cc2c(C(C)C)c(O)c(O)c(C#N)c12 [Compound II, Gossylic nitrile-1,1'-diacetate]
- inhibition at 50 µM ([3]; Human immunodeficiency virus 1, 144 h, 50 uM, 6 days, read-out: inhibition of virus replication): ~50%
- MCC at 144 h [6]: 250 µM

SMILES: Cc1cc2c(C(C)C)c(O)c(O)c3c2c(c1-c1c(C)cc2c(C(C)C)c(O)c(O)c4c2c1OC4=N)OC3=N [Compound III, gossylic iminolactone]
- inhibition at 1 µM ([3]; Human immunodeficiency virus 1, 144 h, 1 uM, 6 days, read-out: inhibition of virus replication): ~50%
- EC50 ([3]; Human immunodeficiency virus 1, 144 h, read-out: ED50 (the source's name)): 1 µM
- toxicity to the host cell (MT4 cells; until the drug concentration reached 50 uM): no toxicity to the host cell
- CC50 at 144 h [6]: 25 to 50 µM
- MCC at 144 h [6]: 50 µM

SMILES: Cc1cc2c(C(C)C)c(O)c(O)c3c2c(c1-c1c(C)cc2c(C(C)C)c(O)c(O)c4c2c1OC4=O)OC3=O [Compound IV, gossylic lactone]
- antiviral activity ([3]; below 250 uM): very little antiviral activity
- toxicity to the MT4 cell (MT4 cells; 250 uM): pronounced toxicity
